Source: patent US8987502B2, “Oleanolic acid amidate derivatives, preparation methods and uses thereof” (Hangzhou Bensheng Pharmaceutical Co., Ltd., priority 2011, dated 2015)
Values after ≈ are worked out from the molar mass of the structure shown.

Experiments:
[1] = system: A549; test: MTT solid tumor cell proliferation inhibition, A549; format: cell-based, human; details: Homo sapiens; for inhibition at 16 µg/mL: A549, 16 μg/mL compound, 72 h, read-out: IR (inhibition rate); for IC50: A549, 72 h, MTT
Protocol: (§1) Human solid tumor cell lines: Hep-2 (laryngeal carcinoma), A549 (human lung cancer), CaES-17 (esophageal cancer cell), PC-3 (prostate cancer), CNE (nasopharyngeal carcinoma cell), and SK-OV-3 (ovarian cancer cell), all of which are purchased from China Center For Type Culture Collection; RKO (human colon adenocarcinoma cell), MGC 803 (human gastric cancer cell), MG63 (osteosarcoma) and U87 MG (malignant glioma cell), all of which are purchased from Fuxiang Bio-tech Co. Ltd., Shanghai, China; PANC-1 (pancreatic cancer), Hep G2 (human liver cancer cell), Becap37 (human breast cancer cell), and Hela (human cervical cancer cell), all of which are donated by Cancer Research Institute of Zhejiang University, China.
(§2) Obtaining 4000 well-growing human solid tumor cells and inoculating them into wells of a 96-well cell culture plate. The culture medium is DMEM High Glucose cell culture medium containing 10% fetal bovine serum. The plate is placed in a carbon dioxide cell incubator (5% CO2) at 37° C. for 24 hours for incubation. After being added with the amidated oleanolic acid derivatives of different concentrations and mixed uniformly, the plate is placed in a carbon dioxide cell incubator (5% CO2) at 37° C. for 72 hours for incubation. Then the relative number of the living cells is determined by the MTT method. In this experiment, the cell proliferation inhibition rate in control group (not treated with any compound) is set as 0%.

[2] = system: RPMI8226; test: MTT multiple myeloma cell proliferation inhibition, RPMI8226; format: cell-based; details: Homo sapiens, RPMI-8226
Protocol: Multiple myeloma cell lines: RPMI8226 (multiple myeloma), purchased from Fuxiang Bio-tech Co. Ltd., Shanghai, China.
(§3) Obtaining 6000 well-growing leukemia cells and inoculating them into wells of a 96-well cell culture plate. The culture medium is the 1640 cell culture medium containing 10% fetal bovine serum. After adding the amidated oleanolic acid derivatives of different concentrations and mixing uniformly, placing the plate in a carbon dioxide cell incubator (5% CO2) at 37° C. and incubated for 72 hours. Then the relative number of viable cells is determined by the MTT method. In this experiment, the cell proliferation inhibition rate in control group (not treated with any compound) is set as 0%.

[3] = system: Kasumi-1; test: MTT leukemia cell proliferation inhibition, Kasumi-1; format: cell-based; details: Homo sapiens
Description: (§4) Leukemia cell lines: leukemia cell lines: K562/adr (drug-resistant, chronic myeloid leukemia, CML), NB4 (acute promyelocytic leukemia, AML), Kasumi-1 (acute myeloid leukemia M2 type, AML-M2), Jurkat (acute lymphoblastic leukemia, ALL), all of which are donated by Cancer Research Institute of Zhejiang University, China; and H9 (acute lymphoblastic leukemia, ALL), which is purchased from China Center for Type Culture Collection (CCTCC).
(§5) Reagents: The standard sample of oleanolic acid (OA) is purchased from Hua Kang Pharmaceutical Raw Material Factory, Shifang City, Sichuan, China; and the amidated oleanolic acid derivatives are prepared according to the present invention.
as §3

[4] = system: Hep-2; test: MTT solid tumor cell proliferation inhibition, Hep-2; format: cell-based, human; details: Homo sapiens
Protocol: as §1, §2

[5] = system: K562/adr; test: MTT leukemia cell proliferation inhibition, K562/adr; format: cell-based; details: Homo sapiens, 72 h; for inhibition at 16 µg/mL: 16 μg/mL compound, read-out: IR (inhibition rate); for IC50: MTT
Description: as §4, §5, §3

[6] = system: PC-3; test: MTT solid tumor cell proliferation inhibition, PC-3; format: cell-based, human; details: Homo sapiens
Protocol: as §1, §2

[7] = system: NB4; test: MTT leukemia cell proliferation inhibition, NB4; format: cell-based; details: Homo sapiens, NB-4
Description: as §4, §5, §3

[8] = system: PANC-1; test: MTT solid tumor cell proliferation inhibition, PANC-1; format: cell-based, human; details: Homo sapiens
Protocol: as §1, §2

[9] = system: Hep G2; test: MTT solid tumor cell proliferation inhibition, Hep G2; format: cell-based; details: Homo sapiens, HepG2
Protocol: as §1, §2

[10] = system: Jurkat; test: MTT leukemia cell proliferation inhibition, Jurkat; format: cell-based; details: Homo sapiens, 72 h
Description: as §4, §5, §3

[11] = system: CNE; test: MTT solid tumor cell proliferation inhibition, CNE; format: cell-based, human; details: Homo sapiens, CNE, 72 h
Protocol: as §1, §2

[12] = system: RKO; test: MTT solid tumor cell proliferation inhibition, RKO; format: cell-based; details: Homo sapiens, 72 h
Protocol: as §1, §2

[13] = system: MGC803; test: MTT solid tumor cell proliferation inhibition, MGC803; format: cell-based, human; details: Homo sapiens, MGC-803
Protocol: as §1, §2

[14] = system: CaES-17; test: MTT solid tumor cell proliferation inhibition, CaES-17; format: cell-based, human; details: Homo sapiens, CaEs17
Protocol: as §1, §2

[15] = system: U87 MG; test: MTT solid tumor cell proliferation inhibition, U87 MG; format: cell-based, human; details: Homo sapiens, U-87 MG, U87 MG, 72 h
Protocol: as §1, §2

[16] = system: SK-OV-3; test: MTT solid tumor cell proliferation inhibition, SK-OV-3; format: cell-based, human; details: Homo sapiens
Protocol: as §1, §2

[17] = system: Hela; test: MTT solid tumor cell proliferation inhibition, Hela; format: cell-based, human; details: Homo sapiens, Hela, 72 h
Protocol: as §1, §2

[18] = system: H9; test: MTT leukemia cell proliferation inhibition, H9; format: cell-based, human; details: Homo sapiens
Description: as §4, §5, §3

[19] = system: MG 63; test: MTT solid tumor cell proliferation inhibition, MG 63; format: cell-based, human
Protocol: as §1, §2

[20] = system: Becap37; test: MTT solid tumor cell proliferation inhibition, Becap37; format: cell-based; details: Homo sapiens
Protocol: as §1, §2

[21] = 16 μg/mL compound, read-out: IR (inhibition rate)

**Q.** How did the inhibition at 16 µg/mL [1] turn out when `CC1(C)CC[C@]2(NC(=O)c3cccs3)CC[C@]3(C)C(=CC[C@@H]4[C@@]5(C)CC[C@H](O)C(C)(C)[C@@H]5CC[C@]43C)[C@@H]2C1` [BS-OA-098] was run?
**A.** Its inhibition at 16 µg/mL is 24.3%.

**Q.** What about the IC50 [1] of the same compound?
**A.** The IC50 was greater than 16 µg/mL.

**Q.** What about the inhibition at 16 µg/mL ([2]; RPMI8226, 16 μg/mL compound, 72 h, read-out: IR (inhibition rate)) of the same compound?
**A.** The inhibition at 16 µg/mL was 97.6%.

**Q.** What about the IC50 ([2]; RPMI8226, 72 h, MTT) of the same compound?
**A.** The IC50 was 6.44 µg/mL (≈ 12 µM).

**Q.** And the inhibition at 16 µg/mL ([3]; Kasumi-1, 16 μg/mL compound, 72 h, read-out: IR (inhibition rate))?
**A.** The inhibition at 16 µg/mL was 35.7%.

**Q.** And the IC50 ([3]; Kasumi-1, 72 h, MTT)?
**A.** The IC50 was greater than 16 µg/mL.

**Q.** What about the inhibition at 16 µg/mL ([4]; Hep-2, 16 μg/mL compound, 72 h, read-out: IR (inhibition rate)) of the same compound?
**A.** The inhibition at 16 µg/mL was 19.6%.

**Q.** And the IC50 ([4]; Hep-2, 72 h, MTT)?
**A.** The IC50 was greater than 16 µg/mL.

**Q.** And the inhibition at 16 µg/mL [5]?
**A.** The inhibition at 16 µg/mL was 81.9%.

**Q.** And the IC50 [5]?
**A.** Its IC50 is 7.83 µg/mL (≈ 14.6 µM).

**Q.** And the inhibition at 16 µg/mL ([6]; PC-3, 16 μg/mL compound, 72 h, read-out: IR (inhibition rate))?
**A.** The inhibition at 16 µg/mL was 45.1%.

**Q.** What about the IC50 ([6]; PC-3, 72 h, MTT) of the same compound?
**A.** The IC50 was 17.4 µg/mL (≈ 32.4 µM).

**Q.** What about the inhibition at 16 µg/mL ([7]; NB4, 16 μg/mL compound, 72 h, read-out: IR (inhibition rate)) of the same compound?
**A.** Its inhibition at 16 µg/mL is 96.3%.

**Q.** And the IC50 ([7]; NB4, 72 h, MTT)?
**A.** The IC50 was 8.22 µg/mL (≈ 15.3 µM).

**Q.** What about the inhibition at 16 µg/mL ([8]; PANC-1, 16 μg/mL compound, 72 h, read-out: IR (inhibition rate)) of the same compound?
**A.** The inhibition at 16 µg/mL was 34.7%.

**Q.** What about the IC50 ([8]; PANC-1, 72 h, MTT) of the same compound?
**A.** The IC50 was greater than 16 µg/mL.

**Q.** What about the inhibition at 16 µg/mL ([9]; Hep G2, 16 μg/mL compound, 72 h, read-out: IR (inhibition rate)) of the same compound?
**A.** The inhibition at 16 µg/mL was 28.4%.

**Q.** What about the IC50 ([9]; Hep G2, 72 h, MTT) of the same compound?
**A.** Its IC50 is greater than 16 µg/mL.

**Q.** And the inhibition at 16 µg/mL [10, 21]?
**A.** Its inhibition at 16 µg/mL is 20.1%.

**Q.** What about the IC50 ([10]; MTT) of the same compound?
**A.** The IC50 was greater than 16 µg/mL.

**Q.** What about the inhibition at 16 µg/mL [11, 21] of the same compound?
**A.** The inhibition at 16 µg/mL was 35.8%.

**Q.** What about the IC50 ([11]; MTT) of the same compound?
**A.** Its IC50 is greater than 16 µg/mL.

**Q.** What about the inhibition at 16 µg/mL [12, 21] of the same compound?
**A.** Its inhibition at 16 µg/mL is 27%.

**Q.** What about the IC50 ([12]; MTT) of the same compound?
**A.** The IC50 was greater than 16 µg/mL.

**Q.** What about the inhibition at 16 µg/mL ([13]; MGC803, 16 μg/mL compound, 72 h, read-out: IR (inhibition rate)) of the same compound?
**A.** The inhibition at 16 µg/mL was 46.3%.

**Q.** What about the IC50 ([13]; MGC803, 72 h, MTT) of the same compound?
**A.** Its IC50 is 16 µg/mL (≈ 29.7 µM).

**Q.** And the inhibition at 16 µg/mL ([14]; CaES-17, 16 μg/mL compound, 72 h, read-out: IR (inhibition rate))?
**A.** The inhibition at 16 µg/mL was 39.9%.

**Q.** What about the IC50 ([14]; CaES-17, 72 h, MTT) of the same compound?
**A.** The IC50 was greater than 16 µg/mL.

**Q.** What about the inhibition at 16 µg/mL [15, 21] of the same compound?
**A.** Its inhibition at 16 µg/mL is 29.8%.

**Q.** And the IC50 ([15]; MTT)?
**A.** The IC50 was greater than 16 µg/mL.

**Q.** And the inhibition at 16 µg/mL ([16]; SK-OV-3, 16 μg/mL compound, 72 h, read-out: IR (inhibition rate))?
**A.** Its inhibition at 16 µg/mL is 53.5%.

**Q.** And the IC50 ([16]; SK-OV-3, 72 h, MTT)?
**A.** Its IC50 is 14.6 µg/mL (≈ 27.2 µM).

**Q.** And the inhibition at 16 µg/mL [17, 21]?
**A.** Its inhibition at 16 µg/mL is 63.1%.

**Q.** And the IC50 ([17]; MTT)?
**A.** Its IC50 is 14.2 µg/mL (≈ 26.3 µM).

**Q.** And the inhibition at 16 µg/mL ([18]; H9, 16 μg/mL compound, 72 h, read-out: IR (inhibition rate))?
**A.** The inhibition at 16 µg/mL was 62.4%.

**Q.** And the IC50 ([18]; H9, 72 h, MTT)?
**A.** Its IC50 is 12.5 µg/mL (≈ 23.2 µM).

**Q.** And the IC50 ([19]; Homo sapiens, MG 63, 72 h, MTT)?
**A.** Its IC50 is greater than 16 µg/mL.

**Q.** What about the “IR (inhibition rate)” value ([19]; MG 63, 16 μg/mL compound, 72 h) of the same compound?
**A.** Its value is 20.9%.

**Q.** And the inhibition at 16 µg/mL ([20]; Becap37, 16 μg/mL compound, 72 h, read-out: IR (inhibition rate))?
**A.** The inhibition at 16 µg/mL was 28.6%.

**Q.** What about the IC50 ([20]; Becap37, 72 h, MTT) of the same compound?
**A.** Its IC50 is greater than 16 µg/mL.

**Q.** Which inhibition at 16 µg/mL [1] does the source give for `CC1(C)CC[C@]2(NC(=O)/C=C/c3ccco3)CC[C@]3(C)C(=CC[C@@H]4[C@@]5(C)CC[C@H](O)C(C)(C)[C@@H]5CC[C@]43C)[C@@H]2C1` [BS-OA-100] here?
**A.** Its inhibition at 16 µg/mL is 15.6%.

**Q.** What about the IC50 [1] of the same compound?
**A.** Its IC50 is greater than 16 µg/mL.

**Q.** What about the inhibition at 16 µg/mL [5] of the same compound?
**A.** Its inhibition at 16 µg/mL is 38.8%.

**Q.** And the IC50 [5]?
**A.** Its IC50 is greater than 16 µg/mL.

**Q.** For `Cc1ccc(C(=O)N[C@]23CCC(C)(C)C[C@H]2C2=CC[C@@H]4[C@@]5(C)CC[C@H](O)C(C)(C)[C@@H]5CC[C@@]4(C)[C@]2(C)CC3)cc1` [BS-OA-102], which inhibition at 16 µg/mL [1] is on record?
**A.** The inhibition at 16 µg/mL was 13.7%.

**Q.** What about the IC50 [1] of the same compound?
**A.** Its IC50 is greater than 16 µg/mL.

**Q.** What about the inhibition at 16 µg/mL [5] of the same compound?
**A.** The inhibition at 16 µg/mL was 57%.

**Q.** And the IC50 [5]?
**A.** The IC50 was greater than 16 µg/mL.
